# Data from ChEMBL document CHEMBL3885861, “Open TG-GATES”.
# Organism: Rattus norvegicus
# Test: Open TG-GATES - Regimen: Single
# Assay type: toxicity, organism-based, Sprague-Dawley
# Set-up: regimen Single, gender Male, age 6 weeks
# Details: in vivo, po, route gavage; for TP / gamma-GTP / ALP / ALT / AST / BUN / CRE / DBIL / GLC / K / LDH / Na / PL / RALB / TBIL / TC / TG: tissue Plasma; for APTT / Bas / Eos / Fbg / Hb / Ht / Lym / MCHC / MCV / Mono / PT / Plat / RBC / Ret / WBC: tissue Blood; for KIDNEY_L / KIDNEY_R / KIDNEY_TOTAL: tissue Kidney; for LIVER: tissue Liver
# [1] = 0 mg/kg, 24 h, dose level Control
# [2] = 600 mg/kg, 24 h, dose level Low
smiles,measurement,setting,value
O=C1NC(=O)C(c2ccccc2)(c2ccccc2)N1 [PHENYTOIN],TP,[1],5.6 g/dL
same,gamma-GTP,[1],1 IU/L
same,TERMINAL_BW,"600 mg/kg, 3 h, dose level Low",210.6 g
same,APTT,"600 mg/kg, 3 h, dose level Low",16.8 s
same,Bas,"600 mg/kg, 3 h, dose level Low",0.2%
same,Eos,"600 mg/kg, 3 h, dose level Low",0.8%
same,Fbg,"600 mg/kg, 3 h, dose level Low",264.8 mg/dL
same,Hb,"600 mg/kg, 3 h, dose level Low",13.1 g/dL
same,Ht,"600 mg/kg, 3 h, dose level Low",39.2%
same,Lym,"600 mg/kg, 3 h, dose level Low",79%
same,MCHC,"600 mg/kg, 3 h, dose level Low",33.5%
same,MCV,"600 mg/kg, 3 h, dose level Low",62.3 fL
same,Mono,"600 mg/kg, 3 h, dose level Low",2.4%
same,PT,"600 mg/kg, 3 h, dose level Low",14 s
same,Plat,"600 mg/kg, 3 h, dose level Low",116 x10_4/uL
same,RBC,"600 mg/kg, 3 h, dose level Low",629.4 x10_4/ul
same,Ret,"600 mg/kg, 3 h, dose level Low",8%
same,KIDNEY_L,"600 mg/kg, 3 h, dose level Low",0.9 g
same,KIDNEY_R,"600 mg/kg, 3 h, dose level Low",1 g
same,KIDNEY_TOTAL,"600 mg/kg, 3 h, dose level Low",1.9 g
same,LIVER,"600 mg/kg, 3 h, dose level Low",8.8 g
same,ALP,"600 mg/kg, 3 h, dose level Low",1512 IU/L
same,ALT,"600 mg/kg, 3 h, dose level Low",36.4 IU/L
same,AST,"600 mg/kg, 3 h, dose level Low",78.6 IU/L
same,BUN,"600 mg/kg, 3 h, dose level Low",10 mg/dL
same,CRE,"600 mg/kg, 3 h, dose level Low",0.2 mg/dL
same,DBIL,"600 mg/kg, 3 h, dose level Low",0.012 mg/dL
same,GLC,"600 mg/kg, 3 h, dose level Low",186.6 mg/dL
same,K,"600 mg/kg, 3 h, dose level Low",3.9 meq/L
same,LDH,"600 mg/kg, 3 h, dose level Low",113.2 IU/L
same,Na,"600 mg/kg, 3 h, dose level Low",141.8 meq/L
same,PL,"600 mg/kg, 3 h, dose level Low",143.4 mg/dL
same,RALB,"600 mg/kg, 3 h, dose level Low",2.5 g/dL
same,TBIL,"600 mg/kg, 3 h, dose level Low",0.052 mg/dL
same,TC,"600 mg/kg, 3 h, dose level Low",82 mg/dL
same,TG,"600 mg/kg, 3 h, dose level Low",36.2 mg/dL
same,TP,"600 mg/kg, 3 h, dose level Low",5.4 g/dL
same,gamma-GTP,"600 mg/kg, 3 h, dose level Low",1.2 IU/L
same,TERMINAL_BW,"600 mg/kg, 6 h, dose level Low",208.2 g
same,APTT,"600 mg/kg, 6 h, dose level Low",18.6 s
same,Bas,"600 mg/kg, 6 h, dose level Low",0.4%
same,Eos,"600 mg/kg, 6 h, dose level Low",0.8%
same,Fbg,"600 mg/kg, 6 h, dose level Low",274.8 mg/dL
same,Hb,"600 mg/kg, 6 h, dose level Low",13 g/dL
same,Ht,"600 mg/kg, 6 h, dose level Low",38.2%
same,Lym,"600 mg/kg, 6 h, dose level Low",77.6%
same,MCHC,"600 mg/kg, 6 h, dose level Low",33.9%
same,MCV,"600 mg/kg, 6 h, dose level Low",61 fL
same,Mono,"600 mg/kg, 6 h, dose level Low",2.6%
same,PT,"600 mg/kg, 6 h, dose level Low",14.3 s
same,RBC,"600 mg/kg, 6 h, dose level Low",626.4 x10_4/ul
same,Ret,"600 mg/kg, 6 h, dose level Low",7.9%
same,WBC,"600 mg/kg, 6 h, dose level Low",89.4 x10_2/uL
same,KIDNEY_L,"600 mg/kg, 6 h, dose level Low",1 g
same,KIDNEY_R,"600 mg/kg, 6 h, dose level Low",0.9 g
same,KIDNEY_TOTAL,"600 mg/kg, 6 h, dose level Low",1.9 g
same,LIVER,"600 mg/kg, 6 h, dose level Low",8.7 g
same,ALP,"600 mg/kg, 6 h, dose level Low",1510.8 IU/L
same,ALT,"600 mg/kg, 6 h, dose level Low",30.8 IU/L
same,AST,"600 mg/kg, 6 h, dose level Low",71.8 IU/L
same,BUN,"600 mg/kg, 6 h, dose level Low",8.6 mg/dL
same,CRE,"600 mg/kg, 6 h, dose level Low",0.2 mg/dL
same,DBIL,"600 mg/kg, 6 h, dose level Low",0.01 mg/dL
same,GLC,"600 mg/kg, 6 h, dose level Low",181.8 mg/dL
same,K,"600 mg/kg, 6 h, dose level Low",4.2 meq/L
same,LDH,"600 mg/kg, 6 h, dose level Low",89 IU/L
same,Na,"600 mg/kg, 6 h, dose level Low",142.8 meq/L
same,PL,"600 mg/kg, 6 h, dose level Low",135.6 mg/dL
same,RALB,"600 mg/kg, 6 h, dose level Low",2.5 g/dL
same,TBIL,"600 mg/kg, 6 h, dose level Low",0.052 mg/dL
same,TC,"600 mg/kg, 6 h, dose level Low",74.8 mg/dL
same,TG,"600 mg/kg, 6 h, dose level Low",26 mg/dL
same,TP,"600 mg/kg, 6 h, dose level Low",5.3 g/dL
same,gamma-GTP,"600 mg/kg, 6 h, dose level Low",1.4 IU/L
same,TERMINAL_BW,"600 mg/kg, 9 h, dose level Low",206.7 g
same,APTT,"600 mg/kg, 9 h, dose level Low",16 s
same,Bas,"600 mg/kg, 9 h, dose level Low",0.2%
same,Eos,"600 mg/kg, 9 h, dose level Low",1%
same,Fbg,"600 mg/kg, 9 h, dose level Low",288.8 mg/dL
same,Hb,"600 mg/kg, 9 h, dose level Low",13.3 g/dL
same,Ht,"600 mg/kg, 9 h, dose level Low",39.5%
same,Lym,"600 mg/kg, 9 h, dose level Low",73.6%
same,MCHC,"600 mg/kg, 9 h, dose level Low",33.7%
same,MCV,"600 mg/kg, 9 h, dose level Low",60.6 fL
same,Mono,"600 mg/kg, 9 h, dose level Low",2.4%
same,PT,"600 mg/kg, 9 h, dose level Low",14.3 s
same,Plat,"600 mg/kg, 9 h, dose level Low",109.6 x10_4/uL
same,RBC,"600 mg/kg, 9 h, dose level Low",653.4 x10_4/ul
same,Ret,"600 mg/kg, 9 h, dose level Low",7.3%
same,WBC,"600 mg/kg, 9 h, dose level Low",74.9 x10_2/uL
same,KIDNEY_L,"600 mg/kg, 9 h, dose level Low",0.9 g
same,KIDNEY_R,"600 mg/kg, 9 h, dose level Low",0.9 g
same,KIDNEY_TOTAL,"600 mg/kg, 9 h, dose level Low",1.8 g
same,LIVER,"600 mg/kg, 9 h, dose level Low",7.7 g
same,ALP,"600 mg/kg, 9 h, dose level Low",1491.4 IU/L
same,ALT,"600 mg/kg, 9 h, dose level Low",29.6 IU/L
same,AST,"600 mg/kg, 9 h, dose level Low",72.4 IU/L
same,BUN,"600 mg/kg, 9 h, dose level Low",8.2 mg/dL
same,CRE,"600 mg/kg, 9 h, dose level Low",0.2 mg/dL
same,DBIL,"600 mg/kg, 9 h, dose level Low",0.016 mg/dL
same,GLC,"600 mg/kg, 9 h, dose level Low",186 mg/dL
same,K,"600 mg/kg, 9 h, dose level Low",4 meq/L
same,LDH,"600 mg/kg, 9 h, dose level Low",80.8 IU/L
same,Na,"600 mg/kg, 9 h, dose level Low",141.2 meq/L
same,PL,"600 mg/kg, 9 h, dose level Low",125.8 mg/dL
same,RALB,"600 mg/kg, 9 h, dose level Low",2.5 g/dL
same,TBIL,"600 mg/kg, 9 h, dose level Low",0.064 mg/dL
same,TC,"600 mg/kg, 9 h, dose level Low",69.6 mg/dL
same,TG,"600 mg/kg, 9 h, dose level Low",18 mg/dL
same,TP,"600 mg/kg, 9 h, dose level Low",5.4 g/dL
same,gamma-GTP,"600 mg/kg, 9 h, dose level Low",1 IU/L
same,TERMINAL_BW,[2],217.3 g
same,APTT,[2],16.9 s
same,Bas,[2],0.2%
same,Eos,[2],1.2%
same,Fbg,[2],286 mg/dL
same,Hb,[2],13.7 g/dL
same,Ht,[2],40.1%
same,Lym,[2],78.4%
same,MCHC,[2],34.2%
same,MCV,[2],62.9 fL
same,Mono,[2],2.4%
same,PT,[2],14.5 s
same,Plat,[2],120.7 x10_4/uL
same,RBC,[2],637.4 x10_4/ul
same,Ret,[2],7.3%
same,WBC,[2],101.8 x10_2/uL
same,KIDNEY_L,[2],1 g
same,KIDNEY_R,[2],1 g
same,KIDNEY_TOTAL,[2],1.9 g
same,LIVER,[2],9.7 g
same,ALP,[2],1621 IU/L
same,ALT,[2],34.6 IU/L
same,AST,[2],67.6 IU/L
same,BUN,[2],14 mg/dL
same,CRE,[2],0.2 mg/dL
same,DBIL,[2],0.022 mg/dL
same,GLC,[2],177.6 mg/dL
same,K,[2],4.4 meq/L
same,LDH,[2],123.6 IU/L
same,Na,[2],141.6 meq/L
same,PL,[2],143 mg/dL
same,RALB,[2],2.6 g/dL
same,TBIL,[2],0.04 mg/dL
same,TC,[2],75.4 mg/dL
same,TG,[2],95.8 mg/dL
same,TP,[2],5.6 g/dL
